Patent US11229664B2, “Treatment of myelosuppression” (priority 2012, dated 2022)

Tested on: platelets
Test: Clinical trials of ODSH adjunctive to induction and consolidation therapy in AML (platelet counts, need for transfusion)
Type: in vivo, human
Protocol: A clinical trial is conducted to confirm the therapeutic advantage of ODSH administered adjunctively to induction and consolidation therapy and subsequent allogeneic or autologous bone marrow transplantation in the treatment of acute myelogenous leukemia (AML). Subjects included in the trial are subjects diagnosed with AML who are undergoing induction and consolidation therapy. Subjects are randomly assigned to either a control group (receiving only induction and consolidation therapy) or a treatment group (receiving adjunctive administration of ODSH). ODSH is administered as a continuous infusion (0.375 mg/kg/hr). Subjects in each arm of the trial are evaluated for platelet counts and the need for platelet transfusion. Further metrics evaluated include measurement of circulating levels of PF4 and rate of granulocyte recovery.
A second clinical trial is conducted to confirm the advantage of ODSH administered adjunctively to induction and consolidation chemotherapy in the treatment of AML. The trial is an open-label pilot study often patients newly diagnosed with AML and not previously treated for AML. Patient treatment regimens are as follows. […] Subjects are evaluated for the degree and duration of thrombocytopenia, based on platelet counts and need for transfusion.

In the case of “substantially 2-O, 3-O desulfated heparin [ODSH]”, the “Thrombocytopenia in AML patients on induction and consolidation chemotherapy (second trial)” value (ODSH 4 mg/kg bolus then 0.25 mg/kg/hr, cytarabine + idarubicin) is reported as “attenuates thrombocytopenia” and the “Thrombocytopenia in AML patients on induction and consolidation therapy (first trial)” value (ODSH continuous infusion 0.375 mg/kg/hr, adjunctive) is reported as “attenuates thrombocytopenia”.
